Values quoted from earlier work in patent US11737985B2 (priority 2013, dated 2023).
Read-outs that look alike come from different tables or passages of the source.

Legend:
[1] = cited from earlier work; for mean concentration in plasma: cancer patients; for Cmax / Tmax: single dose 182 mg controlled-release tablet
[2] = in vivo; cited from earlier work

NNc1nncc2ccccc12 [hydralazine, 1-hydrazinophthalazine]
mean concentration in plasma ([1]; fast acetylators, 182 mg daily controlled-release): 239.1 ng/mL
mean concentration in plasma ([1]; slow acetylators, 83 mg daily controlled-release): 259.2 ng/mL
Cmax ([1]; fast acetylators, ± SD): 208.4 ± 56.9 ng/mL
Tmax ([1]; fast acetylators): 2.8 ± 2.5 h
Cmax ([1]; slow acetylators): 470.4 ± 162.8 ng/mL
Tmax ([1]; slow acetylators): 4.4 ± 3.1 h
systemic clearance [2]: approximately 50 ml/kg/min
